Experimental data as given in PubChem BioAssay AID1963832 (Molecular Pharmacology Branch, DTP, NCI, 2024).

Test system: 885724-159-R-J1-PDC complex spheroid viability
Test: Anticancer human tumor 885724-159-R-J1-PDC patient-derived pancreatic adenocarcinoma cell line growth inhibition [POLQ]
Details: for IC50: curve of first compound; for viability, T/C: stronger effect = lower value
Summary of the method: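 Growth inhibition in 3D: complex spheroids (tumor PDC, HUVEC, MSC) treated with POLQ inhibitor combinations; where Cmax unknown, highest tested concentration 10 microM, except SN-38 at 1 microM.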

[1] = second compound 0.0316 µM, first compound 0.0316 µM
[2] = second compound 0.0316 µM, first compound 0.1 µM
[3] = second compound 0.0316 µM, first compound 0.316 µM
[4] = second compound 0.0316 µM, first compound 1 µM
[5] = second compound 0.0316 µM, first compound 3.16 µM
[6] = second compound 0.0316 µM, first compound 10 µM
[7] = second compound 0.1 µM, first compound 0.0316 µM
[8] = second compound 0.1 µM, first compound 0.1 µM
[9] = second compound 0.1 µM, first compound 0.316 µM
[10] = second compound 0.1 µM, first compound 1 µM
[11] = second compound 0.1 µM, first compound 3.16 µM
[12] = second compound 0.1 µM, first compound 10 µM
[13] = second compound 0.316 µM, first compound 0.0316 µM
[14] = second compound 0.316 µM, first compound 0.1 µM
[15] = second compound 0.316 µM, first compound 0.316 µM
[16] = second compound 0.316 µM, first compound 1 µM
[17] = second compound 0.316 µM, first compound 3.16 µM
[18] = second compound 0.316 µM, first compound 10 µM
[19] = second compound 1 µM, first compound 0.0316 µM
[20] = second compound 1 µM, first compound 0.1 µM
[21] = second compound 1 µM, first compound 0.316 µM
[22] = second compound 1 µM, first compound 1 µM
[23] = second compound 1 µM, first compound 3.16 µM
[24] = second compound 1 µM, first compound 10 µM
[25] = second compound 3.16 µM, first compound 0.0316 µM
[26] = second compound 3.16 µM, first compound 0.1 µM
[27] = second compound 3.16 µM, first compound 0.316 µM
[28] = second compound 3.16 µM, first compound 1 µM
[29] = second compound 3.16 µM, first compound 3.16 µM
[30] = second compound 3.16 µM, first compound 10 µM
[31] = second compound 10 µM, first compound 0.0316 µM
[32] = second compound 10 µM, first compound 0.1 µM
[33] = second compound 10 µM, first compound 0.316 µM
[34] = second compound 10 µM, first compound 1 µM
[35] = second compound 10 µM, first compound 3.16 µM
[36] = second compound 10 µM, first compound 10 µM
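Further: spheroids exposed to compounds for 7 days.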

CCc1cc2c(N3CCc4c(cc(Cn5ccnc5)cc4-c4cn(C)nc4C(F)(F)F)C3=O)cc(C)nc2c(OC)n1 + Nc1ccc(C#CCN(C(=O)Cc2ncc(C(F)(F)F)cc2C(F)(F)F)c2ccc(F)cc2)nn1
IC50 (second compound 0.0316 µM): > 10 µM
IC50 (second compound 0.1 µM): > 10 µM
IC50 (second compound 0.316 µM): > 10 µM
IC50 (second compound 1 µM): > 10 µM
IC50 (second compound 3.16 µM): > 10 µM
IC50 (second compound 10 µM): > 10 µM
viability, T/C [1]: 84.1%
viability, T/C [2]: 82.4%
viability, T/C [3]: 79.4%
viability, T/C [4]: 79.3%
viability, T/C [5]: 75.8%
viability, T/C [6]: 69.2%
viability, T/C [7]: 91.8%
viability, T/C [8]: 87.3%
viability, T/C [9]: 75.8%
viability, T/C [10]: 77.1%
viability, T/C [11]: 70.9%
viability, T/C [12]: 60.3%
viability, T/C [13]: 86.7%
viability, T/C [14]: 84.8%
viability, T/C [15]: 82.2%
viability, T/C [16]: 85.2%
viability, T/C [17]: 69.5%
viability, T/C [18]: 69.7%
viability, T/C [19]: 89%
viability, T/C [20]: 90.9%
viability, T/C [21]: 78.3%
viability, T/C [22]: 71.8%
viability, T/C [23]: 73.1%
viability, T/C [24]: 67.2%
viability, T/C [25]: 79.3%
viability, T/C [26]: 72%
viability, T/C [27]: 78.3%
viability, T/C [28]: 85.4%
viability, T/C [29]: 75.2%
viability, T/C [30]: 69.8%
viability, T/C [31]: 88%
viability, T/C [32]: 88%
viability, T/C [33]: 85.2%
viability, T/C [34]: 76.8%
viability, T/C [35]: 89.9%
viability, T/C [36]: 73%

CCc1cc2c(N3CCc4c(cc(Cn5ccnc5)cc4-c4cn(C)nc4C(F)(F)F)C3=O)ccnc2c(OC)n1 + Nc1ccc(C#CCN(C(=O)Cc2ncc(C(F)(F)F)cc2C(F)(F)F)c2ccc(F)cc2)nn1
IC50 (second compound 0.0316 µM): > 10 µM
IC50 (second compound 0.1 µM): > 10 µM
IC50 (second compound 0.316 µM): > 10 µM
IC50 (second compound 1 µM): > 10 µM
IC50 (second compound 3.16 µM): > 10 µM
IC50 (second compound 10 µM): > 10 µM
viability, T/C [1]: 81.6%
viability, T/C [2]: 85.8%
viability, T/C [3]: 90.6%
viability, T/C [4]: 90%
viability, T/C [5]: 73.5%
viability, T/C [6]: 64.4%
viability, T/C [7]: 78.7%
viability, T/C [8]: 81.9%
viability, T/C [9]: 79.6%
viability, T/C [10]: 84.7%
viability, T/C [11]: 86.6%
viability, T/C [12]: 67.6%
viability, T/C [13]: 86.5%
viability, T/C [14]: 86.6%
viability, T/C [15]: 85.7%
viability, T/C [16]: 80%
viability, T/C [17]: 83.8%
viability, T/C [18]: 69.8%
viability, T/C [19]: 88.9%
viability, T/C [20]: 74.2%
viability, T/C [21]: 78.5%
viability, T/C [22]: 80.8%
viability, T/C [23]: 80.1%
viability, T/C [24]: 70.8%
viability, T/C [25]: 85.6%
viability, T/C [26]: 74.2%
viability, T/C [27]: 77%
viability, T/C [28]: 81.4%
viability, T/C [29]: 79.5%
viability, T/C [30]: 68.1%
viability, T/C [31]: 90.7%
viability, T/C [32]: 80.7%
viability, T/C [33]: 82.2%
viability, T/C [34]: 83.8%
viability, T/C [35]: 81.5%
viability, T/C [36]: 68.3%

COc1cc2cc(C(=O)CCC(=O)O)sc2cc1OC + Nc1ccc(C#CCN(C(=O)Cc2ncc(C(F)(F)F)cc2C(F)(F)F)c2ccc(F)cc2)nn1
IC50 (second compound 0.0316 µM): > 10 µM
IC50 (second compound 0.1 µM): > 10 µM
IC50 (second compound 0.316 µM): > 10 µM
IC50 (second compound 1 µM): > 10 µM
IC50 (second compound 3.16 µM): > 10 µM
IC50 (second compound 10 µM): > 10 µM
viability, T/C [1]: 96.1%
viability, T/C [2]: 105%
viability, T/C [3]: 98.3%
viability, T/C [4]: 108%
viability, T/C [5]: 107%
viability, T/C [6]: 100%
viability, T/C [7]: 103%
viability, T/C [8]: 106%
viability, T/C [9]: 98.8%
viability, T/C [10]: 95.7%
viability, T/C [11]: 101%
viability, T/C [12]: 88.8%
viability, T/C [13]: 101%
viability, T/C [14]: 95.3%
viability, T/C [15]: 90%
viability, T/C [16]: 109%
viability, T/C [17]: 97.6%
viability, T/C [18]: 86.3%
viability, T/C [19]: 94.9%
viability, T/C [20]: 95.2%
viability, T/C [21]: 94.4%
viability, T/C [22]: 92.4%
viability, T/C [23]: 103%
viability, T/C [24]: 88.9%
viability, T/C [25]: 91.1%
viability, T/C [26]: 94.5%
viability, T/C [27]: 103%
viability, T/C [28]: 94.1%
viability, T/C [29]: 104%
viability, T/C [30]: 86.4%
viability, T/C [31]: 107%
viability, T/C [32]: 97.3%
viability, T/C [33]: 92.7%
viability, T/C [34]: 96.8%
viability, T/C [35]: 114%
viability, T/C [36]: 96%

O=C(Nc1ccc(O)c(NS(=O)(=O)c2ccc(F)cc2)c1)c1ccc(-c2ccccc2)cc1 + Nc1ccc(C#CCN(C(=O)Cc2ncc(C(F)(F)F)cc2C(F)(F)F)c2ccc(F)cc2)nn1
IC50 (second compound 0.0316 µM): > 10 µM
IC50 (second compound 0.1 µM): > 10 µM
IC50 (second compound 0.316 µM): > 10 µM
IC50 (second compound 1 µM): > 10 µM
IC50 (second compound 3.16 µM): > 10 µM
IC50 (second compound 10 µM): > 10 µM
viability, T/C [1]: 97.8%
viability, T/C [2]: 94.2%
viability, T/C [3]: 97.4%
viability, T/C [4]: 97.6%
viability, T/C [5]: 110%
viability, T/C [6]: 93.3%
viability, T/C [7]: 102%
viability, T/C [8]: 95.3%
viability, T/C [9]: 112%
viability, T/C [10]: 101%
viability, T/C [11]: 111%
viability, T/C [12]: 96.4%
viability, T/C [13]: 103%
viability, T/C [14]: 93.2%
viability, T/C [15]: 94.7%
viability, T/C [16]: 103%
viability, T/C [17]: 110%
viability, T/C [18]: 93.4%
viability, T/C [19]: 110%
viability, T/C [20]: 99.4%
viability, T/C [21]: 78.1%
viability, T/C [22]: 98.3%
viability, T/C [23]: 101%
viability, T/C [24]: 92.1%
viability, T/C [25]: 97.1%
viability, T/C [26]: 91%
viability, T/C [27]: 87.3%
viability, T/C [28]: 104%
viability, T/C [29]: 108%
viability, T/C [30]: 95.7%
viability, T/C [31]: 91.2%
viability, T/C [32]: 98.4%
viability, T/C [33]: 103%
viability, T/C [34]: 98.6%
viability, T/C [35]: 108%
viability, T/C [36]: 86.4%
